Data as given in patent publication US4327213A, “Alpha-hydrocarbonoxyimino-pyrazineacetonitriles” (ACF Chemiefarma VA, priority 1977, dated 1982).
Where two headings read alike, the source gives them in different places.

Experiments:
[1] = tested on: indomethacin-induced gastric damage; test: Inhibition of indomethacin-induced gastric damage in the rat (anti-ulcer activity, method of Elegbe); type: in vivo; conditions: po, 5 h, indomethacin 15 mg/kg s.c., compound 100 mg/kg orally, 30 min prior to and 2 h post indomethacin, read-out: Table 1 % Inhibition (mean inhibition of gastric damage)
Procedure: This was assessed by the inhibition of indomethacin-induced gastric damage in the rat according to the method of Elegbe (Israeli J. Med. Sci. (1974), 10, 1451).
Rats were starved overnight, given indomethacin subcutaneously (15 mg/kg) and sacrificed 5 hours later. Stomachs were inflated with 0.9% saline, cut along the greater curvature, pinned out and scored for gastric damage by the following system:
Score 1-3 according to the degree of erythema and slight haemorrhage.
Score 4-6 according to degree of mucosal erosion.
Score 7-9 according to depth of gastric damage.
Groups of 7 rats were used for each treatment level of compound, and a similar group receiving vehicle only was set up on each occasion of testing. Compound or vehicle was administered orally 30 minutes prior to, and at 2 hours post, dosing with indomethacin. Mean values per treatment were obtained using the above scoring system and the Mann Witney test applied for significance between such values. The mean inhibition of gastric damage from a number of experiments is shown in the following Table 1; the dosage being 100 mg/kg orally.

[2] = tested on: gastric secretion; test: Effects on gastric secretion in the pyloric ligated rat (method of Shay et al.); type: in vivo; conditions: intraduodenal, 100 mg/kg i.d., sacrificed 3 hours later
Procedure: 2. Effects on Gastric Secretion, in the Pyloric Ligated Rat
The method described by Shay, et al. (Gastroenterol (1945) 26, 906) was used. After overnight starvation the pylorus of a rat was ligated under halothane anaesthesia, the Compound vehicle only administered intraduodenally and the rats allowed to recover. They were sacrificed 3 hours later and the gastric juice removed. After measurement of the volume of secretion, its hydrogen ion concentration, [H^+ ], was determined by titration with 0.05 N NaOH to pH 7. Groups of 4-6 animals were used for each treatment and the inhibitory effect of the Compound was ascertained by comparison of the mean values obtained with those from a simultaneously set up control group of animals which received vehicle only. Students `t` test was applied for significance between groups. The mean values for % inhibition obtained for a number of experiments are shown in the following Table 2, the dosage being 100 mg/kg i.d.

[3] = Acute toxicity in rats; conditions: rat, in vivo
Procedure: (§1) 5 (Z-isomer) up to 536 or 824 mg/kg in mice and rats respectively. The acute oral median lethal dose of compound no. 5 is 1268 mg/kg in male mice and 2311 mg/kg in male rats.

[4] = Acute toxicity in mice; conditions: mouse, in vivo
Procedure: as §1

[5] = tested on: gastric secretion; test: Effects on gastric secretion in the pyloric ligated rat (method of Shay et al.); type: in vivo; conditions: intraduodenal, 50 mg/kg i.d., sacrificed 3 hours later
[6] = read-out: Table 2 % Inhibition Volume (volume of gastric secretion)
[7] = read-out: Table 2 % Inhibition [H^+ ] (hydrogen ion concentration)

| Structure (SMILES) | inhibition in vivo at 100 mg/kg [1] [%] | inhibition in vivo at 100 mg/kg [2, 6] [%] | inhibition in vivo at 100 mg/kg [2, 7] [%] | other results |
| --- | --- | --- | --- | --- |
| CO/N=C(/C#N)c1cnc2ccccn12 [6 qq] | 100 | 77 | 29 | – |
| CON=C(c1ccccn1)C(F)(F)F [Compound 7, 2-Pyridinyl trifluoromethyl ketone, O-methyl oxime] | – | 74 | 33 | – |
| CCO/N=C(\C#N)c1cnccn1 [6 b] | 68 | 66 | 60 | – |
| CON=C(C#N)c1cccnc1 [6 bb] | 72 | – | – | – |
| N#C/C(=N\OC1CCCCC1)c1cnccn1 [6 e] | – | 62 | 48 | – |
| CO/N=C(\C#N)c1ccc2ccccc2n1 [6 ee] | 84 | 28 | – | – |
| CCCCO/N=C(\C#N)c1cnccn1 [6 d] | 50 | – | – | – |
| CO/N=C(\C(N)=O)c1ccccn1 [9 b] | 56 | 26 | – | – |
| CON=C(C#N)c1ccncc1 [6 cc] | 95 | 80 | 39 | – |
| CO/N=C(\C#N)c1c[n+](C)ccn1 [Compound 15, α-Methoxyimino-2-pyrazineacetonitrile-4-methiodide] | 55 | – | – | – |
| CO/N=C(\C#N)c1ccnc2ccccc12 [6 ll] | 85 | 85 | 23 | – |
| CON=C(C#N)c1cnccn1 [Compound 5, α-Methoxyiminopyrazineacetonitrile] | – | – | – | LD50 ([3]; male rats, oral, read-out: Acute oral median lethal dose): 2310 mg/kg; LD50 ([4]; male mice, oral, read-out: Acute oral median lethal dose): 1270 mg/kg |
| CO/N=C(/C(N)=O)c1ccccn1 [9 c] | 65 | 40 | – | – |
| CC(C)O/N=C(\C#N)c1cnccn1 [6 c] | 43 | 52 | – | – |
| CON=C(C#N)c1ccccn1 [6 a] | 62 | 62 | – | – |
| CON=Cc1cnccn1 [12 (and 13), Pyrazine carboxaldehyde, O-methyl oxime] | 66 | 42 | – | – |
| CO/N=C(/C#N)c1cnccn1 [5 (E-isomer), α-Methoxyiminopyrazineacetonitrile] | 96 | – | – | – |
| CO/N=C(\C(N)=S)c1ccccn1 [8 (and 10), α-Methoxyimino-2-pyridinethioacetamide] | 74 | – | – | inhibition in vivo at 50 mg/kg [5, 6]: 32%; inhibition in vivo at 50 mg/kg [5, 7]: 24% |
| CO/N=C(\C#N)c1ccc2cc(C)ccc2n1 [6 ff] | 42 | – | – | – |
| CON=C(C#N)c1cccc(Cl)n1 [6 aa] | – | 35 | 23 | – |
| CO/N=C(\C#N)c1cnc2ccccc2n1 [6 nn] | 79 | 28 | – | – |
| CO/N=C(\C#N)c1ccc2ccc(C)cc2n1 [6 gg] | 42 | – | – | – |
| CO/N=C(\C#N)c1cnccn1 [5 (Z-isomer), α-Methoxyiminopyrazineacetonitrile] | 94 | 70 | 73 | NOAEL ([3]; rats, single doses, read-out: Single dose up to which no adverse effects were seen): ≥ 824 mg/kg; NOAEL ([4]; mice, single doses, read-out: Single dose up to which no adverse effects were seen): ≥ 536 mg/kg |
| CO/N=C(\C#N)c1c[n+]([O-])ccn1 [14 a] | 91 | 50 | 34 | – |
| CON=C(C#N)c1cncnc1 [6 dd] | 77 | 35 | 39 | – |
| CO/N=C(\C#N)c1nccc2ccccc12 [6 mm] | 42 | 28 | – | – |
